The subject of series [1] is Aorta. Nature of the series: tissue or blood. As to conditions: Rattus norvegicus, Wistar.
Description: (§1) Vasodilation activity in Wistar rat aorta assessed as relaxation of phenylephrine-induced contraction
Series [2] deals with Liver microsomes. Nature of the series: Antioxidant activity against […]/ascorbate-induced lipid peroxidation in Wistar rat liver microsomal membrane at 05 to 15 uM by TBARS assay. Type of series: functional. The conditions noted are these: Microsome.
A short description of series [3]: physchem. The conditions noted are these: octanol/water.
Description: Lipophilicity, neutral log P of the compound
Series [4] is described as follows: physchem. The conditions noted are these: octanol/water, pH 7.4.
The test system of series [5] is Liver microsomes.
Description: Antioxidant activity against Fe2SO4/ascorbate-induced lipid peroxidation in Wistar rat liver microsomal membrane by TBARS assay
A short description of series [6]: physchem.
Description: Dissociation constant, pKa by potentiometric titration
For series [7] the following is noted: octanol/water.
Description: Lipophilicity, ionic log P by shake flask method
In series [8] the test system is Aorta.
Description: as §1

Activity calls are given as the source filed them. The rule behind the calls is not given here.

With `CCOc1no[n+]([O-])c1S(=O)(=O)c1ccccc1`, the response in the series with Aorta [1] was half-maximal at 12 nM (EC50). Besides, the result with Liver microsomes [2] was inactive. For the same compound, the logP in the series “physchem [3]” is 3.15.

On to `CC1=NN(c2ccc(OCc3no[n+]([O-])c3C#N)cc2)C(=O)C1`, for which the logD in the series “physchem [4]” is 1.28. Also, in the series with Liver microsomes [5], the IC50 is 5800 nM. The compound also had an EC50 in the series with Aorta [1] of 23 nM. The compound also yielded a pKa in “physchem [6]” of 7.06. Also, the logP in “physchem [3]” was found to be 1.72. In series [7], this compound showed a logPi of -0.99.

Compound `COCCCCCCO[N+](=O)[O-]` had an EC50 with Aorta [1] of 1400 nM. In the series with Liver microsomes [2], the result was inactive. The logP in the series “physchem [3]” was 2.23.

In the series on Aorta [1], `COc1no[n+]([O-])c1-c1ccccc1` returned an EC50 of 5600 nM. Further, the outcome in the series with Liver microsomes [2] was inactive. Moreover, the logP in “physchem [3]” stood at 2.47.

Take `COCc1no[n+]([O-])c1C(N)=O`: in the series on Aorta [1], the EC50 stood at 3900 nM. In addition, the outcome with Liver microsomes [2] was inactive. Also, the logP in “physchem [3]” was 0.14.

With `CC1=NN(c2ccc(OCc3no[n+]([O-])c3C(N)=O)cc2)C(=O)C1`, in “physchem [4]”, the log distribution coefficient (logD) is 0.48. In the series on Liver microsomes [5], this compound displayed an IC50 of 7900 nM. This compound also showed an EC50 in the series with Aorta [1] of 2800 nM. Besides, the pKa in the series “physchem [6]” came out at 7.08. In addition, the logP in “physchem [3]” was 0.92.

`COc1ccc(N2N=C(C)CC2=O)cc1` gave a logD in the series “physchem [4]” of 0.77. In the series with Liver microsomes [5], this compound returned an IC50 of 20000 nM. The EC50 entry in the series with Aorta [8] is “Not Active”. Further, the pKa in the series “physchem [6]” was determined as 7.06. This compound also registered a logP in the series “physchem [3]” of 1.19.

With `COCc1no[n+]([O-])c1C#N`, the EC50 with Aorta [1] turned out to be 9.5 nM. Besides, the result with Liver microsomes [2] was inactive. The compound further had a logP in the series “physchem [3]” of 0.83.

In the series “physchem [4]”, `CC1=NN(c2ccccc2)C(=O)C1` [EDARAVONE] came in with a logD of 0.78. In addition, inhibition in the series on Liver microsomes [5] was half-maximal at 17000 nM (IC50). The EC50 entry in the series on Aorta [8] is given as “Not Active”. In the series “physchem [6]”, this compound yielded a pKa of 6.9. The compound also returned a logP in the series “physchem [3]” of 1.28.

On to `CC1=NN(c2ccc(OCCCCCCO[N+](=O)[O-])cc2)C(=O)C1`, for which the logD in “physchem [4]” amounted to 2.67. For the same compound, the IC50 in the series with Liver microsomes [5] was 2100 nM. Besides, in the series with Aorta [1], it took 980 nM to reach a half-maximal effect (EC50). This compound also returned a pKa in the series “physchem [6]” of 7.12. Moreover, the logP in the series “physchem [3]” came out at 3.34. The logPi in series [7] worked out at 0.15.

`CC1=NN(c2ccc(OCCCOc3no[n+]([O-])c3S(=O)(=O)c3ccccc3)cc2)C(=O)C1` came in with a logD in the series “physchem [4]” of 3.16. The same compound displayed an IC50 in the series with Liver microsomes [5] of 3800 nM. The EC50 in the series on Aorta [1] was 77 nM. Also, the pKa in the series “physchem [6]” turned out to be 7.12. In the series “physchem [3]”, this compound came in with a log partition coefficient (logP) of 3.62. The compound further gave a logPi in series [7] of 0.4.

`CC1=NN(c2ccc(OCCCCC(CO[N+](=O)[O-])O[N+](=O)[O-])cc2)C(=O)C1` (stereo not drawn) returned a logD in the series “physchem [4]” of 2.54. This compound also yielded an IC50 in the series with Liver microsomes [5] of 2900 nM. This compound also showed an EC50 in the series on Aorta [1] of 680 nM. This compound also came in with a pKa in the series “physchem [6]” of 7.15. In the series “physchem [3]”, this compound yielded a logP of 3.1. Further, the logPi in series [7] is reported as 0.05.

In turn, `CC1=NN(c2ccc(OCCCO[N+](=O)[O-])cc2)C(=O)C1` returned a logD in the series “physchem [4]” of 1.59. In the series on Liver microsomes [5], this compound had an IC50 of 3400 nM. The response in the series on Aorta [1] was half-maximal at 1100 nM (EC50). For the same compound, the pKa in the series “physchem [6]” came to 7.11. The same compound showed a logP in the series “physchem [3]” of 1.9. In series [7], this compound displayed a logPi of -1.07.

For the compound `COCCCO[N+](=O)[O-]`, the response with Aorta [1] was half-maximal at 9600 nM (EC50). Besides, the result in the series with Liver microsomes [2] was inactive. Also, the logP in “physchem [3]” amounted to 1.01.

(Values after ChEMBL document CHEMBL1139380, “Edaravone derivatives containing NO-donor functions” (J Med Chem, 2009).)
